A short description of the assay: Cleavage kinetics of cleavable linking moieties (CLM) with reducing agent THPP, compounds immobilized on a solid support. In kind it is physicochemical. The conditions noted are these: 1 mM THPP, 55° C.

For one substance, cleavage reaction results are on record in patent publication US20240316036A1, “DISULFIDE CONTAINING THERAPEUTICS AND DIAGNOSTICS” (Singular Genomics Systems, Inc., priority 2023, published 2024).

Procedure: For the assay, a plurality of compounds containing the CLM was immobilized on a solid support. Next, a cleavage solution containing 10 mM THPP as a reducing agent was introduced for controlled periods of time. A second labeled compound was introduced to the solid support; compounds without a CLM will bind the labeled compounds. The cleavage reaction was carried out at 55° C., in a buffer solution at 9.5 pH. The degree of cleavage was measured as the percent of compounds that include a labeled compound as a function of time.
A similar assay as described supra was performed, except that the concentration of the reducing agent was diluted to 1 mM of THPP and the cleavage reaction was carried out at 55° C.

On to methylene disulfide [CLM #1], for which the cleavage reaction result is reported as “slow”.
